# Assay results as given in patent US10011571B2, “Preparation method for aromatic heterocyclic compound used as selective JAK3 and/or JAK1 kinase inhibitor and application of aromatic heterocyclic compound” (SHENZHEN CHIPSCREEN BIOSCIENCES, LTD., priority 2014, dated 2018).
# Tests used:
# CTLL-2 cells = assay: Cell growth activity assay (MTS), CTLL-2 cell model; format: cell-based, mouse; conditions: Mus musculus, CTLL-2, 300 nM, 24 h, read-out: CTLL-2 % growth rate @300 nM
# Excerpt: (§1) MTS assay is a routine method for cell toxicity detection. The basic principle is based on the capacity of dehydrogenase in the mitochondria of living cells to reduce a novel yellow […] MTS to formazan, so that the amount of living cells is proportional to the amount of formazan product by detecting the absorbance at 490 nm (OD), thereby speculating the amount of living cells according to the OD value, and understanding the capacity of the test compound to inhibit the growth of cells or to kill the cells.
# In this experiment, mouse T-cell line CTLL-2 was used. The proliferation and growth of this cell line strongly depend on IL-2, and it is commonly used to evaluate the active titer of exogenous IL-2. By inhibiting the activity of kinase JAK1/3, the proliferation of CTLL-2 can be inhibited under in vitro culture. The activation and proliferation of T-cell is also important pathological characteristics for various immunological diseases. Thus, this model is also pathologically related.
# By comparing the change of absorbance generated by the cells treated by the test compounds using MTS assay, the growth inhibitory activity of the test compounds on the model cells can be realized, and thereby potential inhibitory activity of the compounds on JAK1/3 pathway can be evaluated.
# (§2) MTS is performed according to routine procedure in a 96-well plate.
# (§3) The model cells are inoculated into each well of the 96-well plate at an appropriate concentration (about 20,000 cells/well). After 24 h, the test compounds are added at different concentration gradients (the highest concentration of 10 μM). A solvent control (DMSO) and a negative control are also performed at the same time. Each experiment is repeated for 3 times. The cells are detected after cultured for another 24 h.
# CTLL-2 is a suspended cell. After incubation, 20 μL pre-formulated mixture of MTS and PMS (in a ratio of 20:1) is directly added to each well. After incubation at 37° C. for 2 h, it is then detected by a microplate reader (490 nm).
# The effect of the test compound on cell growth is calculated by comparing the change of OD values between the test well and the solvent control well, after subtracting the background of the negative control. For the test compounds at different concentration gradients, the inhibitory rates on the growth of model cells and their half-growth inhibitory concentrations (GI50) are each calculated.
# Based on the above method, cytological evaluation is performed to the compounds described herein (for the detection of CTLL-2 cell, the concentration of the test compound is 300 nM; for the detection of HeLa and HUVEC cell, the concentration of the test compound is […]).
# JAK2 = JAK2 (Homo sapiens (Human), UniProt O60674); assay: Z'-LYTE enzymatic activity detection, JAK2; format: biochemical; conditions: test compound 30 nM; for inhibition at 0.03 µM: read-out: JAK2 % inhibitory rate @30 nM
# Sequence of JAK2 (O60674 whole entry): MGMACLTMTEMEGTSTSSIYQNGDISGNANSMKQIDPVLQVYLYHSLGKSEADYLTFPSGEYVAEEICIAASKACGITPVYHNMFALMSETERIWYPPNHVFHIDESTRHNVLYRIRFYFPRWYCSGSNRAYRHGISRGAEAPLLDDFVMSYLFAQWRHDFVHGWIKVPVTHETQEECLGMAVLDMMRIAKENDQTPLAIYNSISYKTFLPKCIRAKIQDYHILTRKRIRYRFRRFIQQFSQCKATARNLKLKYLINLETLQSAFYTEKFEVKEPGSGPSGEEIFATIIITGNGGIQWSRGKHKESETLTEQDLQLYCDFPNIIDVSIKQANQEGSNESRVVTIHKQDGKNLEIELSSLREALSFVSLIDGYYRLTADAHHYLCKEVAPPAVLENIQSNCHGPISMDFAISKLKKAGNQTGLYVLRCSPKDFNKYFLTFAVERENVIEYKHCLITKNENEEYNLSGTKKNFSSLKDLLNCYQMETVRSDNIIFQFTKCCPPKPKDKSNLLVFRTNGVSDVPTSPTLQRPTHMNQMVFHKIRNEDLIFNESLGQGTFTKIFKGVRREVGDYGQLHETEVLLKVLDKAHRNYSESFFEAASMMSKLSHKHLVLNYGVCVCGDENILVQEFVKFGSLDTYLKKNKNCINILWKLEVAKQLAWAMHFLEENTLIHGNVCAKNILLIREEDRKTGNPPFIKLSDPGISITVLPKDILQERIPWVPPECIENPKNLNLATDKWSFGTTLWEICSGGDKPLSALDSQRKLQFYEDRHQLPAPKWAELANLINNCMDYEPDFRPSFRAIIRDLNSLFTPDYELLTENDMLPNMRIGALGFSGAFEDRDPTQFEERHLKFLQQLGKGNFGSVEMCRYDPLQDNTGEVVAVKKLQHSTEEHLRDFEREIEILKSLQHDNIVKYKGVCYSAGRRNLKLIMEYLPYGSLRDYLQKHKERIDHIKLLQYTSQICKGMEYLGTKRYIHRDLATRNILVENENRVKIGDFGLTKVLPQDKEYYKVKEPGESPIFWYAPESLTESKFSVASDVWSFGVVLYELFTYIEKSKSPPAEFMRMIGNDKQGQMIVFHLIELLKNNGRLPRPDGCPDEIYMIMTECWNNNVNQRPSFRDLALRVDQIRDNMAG
# Protocol: (§4) The basic principle of in vitro enzymatic activity assay is based on the difference between the intensities of fluorescence signals generated at different wavelengths (445 nm and 520 nm) from the phosphorylated substrate and non-phosphorylated substrate, in which the specific fluorescence-labeled substrate is phosphorylated by the kinase. When different test compounds are added, the inhibition of kinase activity is represented as the different degrees of substrate phosphorylation, and thus as the different intensities of fluorescence signal, based on which the inhibitory activity of the compound on the kinase can be calculated. Basic detection principle is illustrated in FIG. 1.
# (§5) In an enzymatic inhibitory activity detection, GST-labeled human recombinant JAK kinases, including JAK1/PV4774, JAK2/PV4210, JAK3/PV3855, TYK2/PV4790 and their corresponding specific substrates, including Tyr6 (Z′-LYTE® Kinase Assay Kit-Tyrosine 6 Peptide, JAK1/PV4122), Tyr4 (Z′-LYTE® Kinase Assay Kit-Tyrosine 4 Peptide, JAK2/PV3193), Tyr4 (Z′-LYTE® Kinase Assay Kit-Tyrosine 4 Peptide, JAK3/PV3193), Tyr3 (Z′-LYTE® Kinase Assay Kit-[…], TYK2/PV3192) are used. In all tests, development reagent A (PV3297) was used as the test agent. All materials mentioned above were purchased from Invitrogen.
# (§6) (1) Preparation: kinase reaction buffer (working solution) is prepared according to the instruction; a concentration gradient of the test compound is prepared by dilution using the kinase reaction buffer (the highest compound concentration is 10 μM for JAK1, JAK2, and TYK2 detection, and 1 μM for JAK3 detection, respectively).
# (§7) (2) 10 μl of reaction system, comprising 2.5 μL test compound, 5 μL kinase reaction buffer and 2.5 μL ATP solution (provided by the kit), is mixed and reaction is performed at room temperature for 1 h.
# (§8) (3) Controls, including a solvent control without the test compound, a negative control without ATP and a positive control with the phosphorylated substrate, are tested together with the detection. All tests are carried out in triplicate.
# (§9) (4) After the enzymatic reaction, 5 μL pre-formulated development buffer is added, and reaction is performed at room temperature for 1 h. Subsequently, the reaction is terminated by adding 5 μL stop buffer.
# (§10) (5) The fluorescence signal in each well is detected by an Ascent Fluoroskan FL reader (Thermo Labsystems) at an excitation wavelength of 400 nm, and emission wavelengths of 445 nm and 520 nm. The proportion of substrate phosphorylation is obtained by reference to the fluorescence signal intensity C445/F520.
# (§11) (6) The enzymatic inhibitory rate of the test compound can be calculated based on the following equation: Inhibitory rate (%)=1−the proportion of substrate phosphorylation in the detection well/the proportion of substrate phosphorylation in the solvent control well. The half-inhibitory concentration (IC50) can be calculated using an IC50 calculator based on the inhibitory rates of phosphorylation for the test compounds at different concentration gradients.
# (§12) Based on the above method, the compounds described herein are enzymatically evaluated in vitro for JAKs (the concentration of the test compound is 30 nM for JAK3 and JAK2 test, and 300 nM for JAK1 test) using Xeljanz (tofacitinib citrate) as the positive control.
# JAK1 = JAK1 (Homo sapiens (Human), UniProt P23458); assay: Z'-LYTE enzymatic activity detection, JAK1; format: biochemical; conditions: test compound 300 nM; for inhibition at 0.3 µM: read-out: JAK1 % inhibitory rate @300 nM
# Sequence of JAK1 (P23458 whole entry): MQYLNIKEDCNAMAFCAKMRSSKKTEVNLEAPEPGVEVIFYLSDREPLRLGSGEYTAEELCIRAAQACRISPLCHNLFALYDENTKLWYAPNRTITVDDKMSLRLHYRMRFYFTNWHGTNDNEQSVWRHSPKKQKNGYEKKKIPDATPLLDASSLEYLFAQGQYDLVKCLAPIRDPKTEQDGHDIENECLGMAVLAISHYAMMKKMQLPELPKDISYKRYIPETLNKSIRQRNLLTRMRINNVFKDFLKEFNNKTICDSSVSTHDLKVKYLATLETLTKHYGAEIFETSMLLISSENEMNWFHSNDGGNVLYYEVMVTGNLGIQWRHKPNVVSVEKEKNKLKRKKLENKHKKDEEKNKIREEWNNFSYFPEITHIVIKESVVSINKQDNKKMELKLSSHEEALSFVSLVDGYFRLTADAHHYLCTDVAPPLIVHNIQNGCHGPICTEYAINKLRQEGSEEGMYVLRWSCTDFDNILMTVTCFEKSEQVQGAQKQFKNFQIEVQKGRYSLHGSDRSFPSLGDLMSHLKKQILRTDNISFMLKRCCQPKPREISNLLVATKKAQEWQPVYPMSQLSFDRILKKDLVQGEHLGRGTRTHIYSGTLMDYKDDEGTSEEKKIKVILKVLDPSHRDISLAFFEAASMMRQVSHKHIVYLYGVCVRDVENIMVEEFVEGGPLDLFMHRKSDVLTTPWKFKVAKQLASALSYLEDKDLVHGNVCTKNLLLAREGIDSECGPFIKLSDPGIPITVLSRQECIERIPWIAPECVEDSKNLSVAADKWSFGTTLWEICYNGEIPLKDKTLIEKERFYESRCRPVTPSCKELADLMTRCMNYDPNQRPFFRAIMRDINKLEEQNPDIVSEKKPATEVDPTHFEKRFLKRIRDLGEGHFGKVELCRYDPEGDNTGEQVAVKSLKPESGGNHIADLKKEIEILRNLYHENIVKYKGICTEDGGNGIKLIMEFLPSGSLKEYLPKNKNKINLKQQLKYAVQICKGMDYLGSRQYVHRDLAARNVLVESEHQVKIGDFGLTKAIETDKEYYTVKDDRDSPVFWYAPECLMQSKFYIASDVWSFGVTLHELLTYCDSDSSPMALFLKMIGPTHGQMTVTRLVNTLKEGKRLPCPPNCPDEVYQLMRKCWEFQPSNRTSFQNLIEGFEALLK
# Protocol: as §4, §5, §6, §7, §8, §9, §10, §11, §12
# HeLa cells = assay: Cell growth activity assay (MTS), HeLa cell model; format: cell-based, human; design: activity: dose or concentration left out as unconfirmed; conditions: Homo sapiens, HeLa, 72 h, read-out: HeLa % growth rate
# Excerpt: as §1
# HeLa cell is a human cervical cancer cell line, and belongs to epithelial tumor cell line; HUVEC is a human umbilical vein endothelial cell, and belongs to primary endothelial cell; both types of cells express all subtypes except for JAK3.
# The change of JAK kinase activity has no significant influence on other cell types except for the immune cells, and both cell models mentioned above are mainly used to evaluate whether there are any other kinase targets besides JAK kinases or there are nonselective cell toxicities.
# In this experiment, a cultured cell model is incubated with the test compounds at different concentrations for a specific duration. The effect of the treatment by the test compound on the growth of cells is detected using MTS assay.
# as §2
# as §3, with “(about 5000” for “(about 20,000”, “highest final” for “highest”, “concentration is 40” for “concentration of 10”, “another 72” for “another 24”
# After all culture medium is aspirated out of the well, 100 μL fresh medium and 20 μL pre-formulated mixture of MTS and PMS (in a ratio of 20:1) are added to each well. After incubation at 37° C. for 2 h, it is then detected by a microplate reader (490 nm).
# The cell growth inhibitory rate and GI50 of the test compound are calculated as above.
# Based on the above method, cytological evaluation is performed to the compounds described herein (for the detection of CTLL-2 cell, the concentration of the test compound is 300 nM; […]).
# JAK3 = JAK3 (Homo sapiens (Human), UniProt P52333); assay: Z'-LYTE enzymatic activity detection, JAK3; format: biochemical; conditions: test compound 30 nM; for inhibition at 0.03 µM: read-out: JAK3 % inhibitory rate @30 nM
# Sequence of JAK3 (P52333 whole entry): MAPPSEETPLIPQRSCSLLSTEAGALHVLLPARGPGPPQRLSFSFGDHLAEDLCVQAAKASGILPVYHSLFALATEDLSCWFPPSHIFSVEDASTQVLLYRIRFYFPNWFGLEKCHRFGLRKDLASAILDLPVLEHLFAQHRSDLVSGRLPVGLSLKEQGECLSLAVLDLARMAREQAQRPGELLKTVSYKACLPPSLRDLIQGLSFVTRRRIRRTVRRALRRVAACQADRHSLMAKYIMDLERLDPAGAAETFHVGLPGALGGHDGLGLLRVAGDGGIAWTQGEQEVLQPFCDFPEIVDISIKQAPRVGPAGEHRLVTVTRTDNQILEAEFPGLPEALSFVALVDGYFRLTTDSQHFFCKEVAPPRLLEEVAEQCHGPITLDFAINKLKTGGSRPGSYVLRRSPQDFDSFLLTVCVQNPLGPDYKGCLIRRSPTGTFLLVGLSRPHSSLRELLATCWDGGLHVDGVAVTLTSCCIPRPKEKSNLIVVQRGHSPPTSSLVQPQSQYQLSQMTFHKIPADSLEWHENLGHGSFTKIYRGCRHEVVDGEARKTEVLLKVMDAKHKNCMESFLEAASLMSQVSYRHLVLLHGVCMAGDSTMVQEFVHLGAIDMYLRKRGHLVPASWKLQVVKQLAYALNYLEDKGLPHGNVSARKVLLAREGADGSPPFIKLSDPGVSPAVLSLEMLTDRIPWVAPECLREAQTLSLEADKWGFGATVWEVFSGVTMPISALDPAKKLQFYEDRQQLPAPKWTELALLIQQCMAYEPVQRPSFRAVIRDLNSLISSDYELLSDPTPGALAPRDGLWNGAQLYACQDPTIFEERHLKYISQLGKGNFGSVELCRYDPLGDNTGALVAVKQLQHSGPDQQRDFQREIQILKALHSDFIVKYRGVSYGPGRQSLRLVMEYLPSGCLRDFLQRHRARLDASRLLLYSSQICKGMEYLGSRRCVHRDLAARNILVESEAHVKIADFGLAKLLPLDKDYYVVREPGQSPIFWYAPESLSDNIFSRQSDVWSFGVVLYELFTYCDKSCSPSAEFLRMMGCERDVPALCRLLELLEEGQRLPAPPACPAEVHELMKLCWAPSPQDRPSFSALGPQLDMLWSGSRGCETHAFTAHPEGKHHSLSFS
# Protocol: as §4, §5, §6, §7, §8, §9, §10, §11, §12
Compound,inhibition at 0.03 µM (JAK2) [%],JAK1 RV (ratio between the inhibitory rate of the test compound and that of Xeljanz) (JAK1),inhibition at 0.3 µM (JAK1) [%],JAK3 RV (ratio between the inhibitory rate of the test compound and that of Xeljanz) (JAK3),inhibition at 0.03 µM (JAK3) [%],JAK2 RV (ratio between the inhibitory rate of the test compound and that of Xeljanz) (JAK2),activity at 0.3 µM (CTLL-2 cells) [%],activity (HeLa cells) [%]
"C=CC(=O)Nc1cc(Nc2ncc(Cl)c(NCCCNC(=O)c3ccc(C(F)(F)F)cc3)n2)ccc1F [Example 13, N-(3-(2-(3-acrylamido-4-fluoro-phenylamino)-5-chloropyrimidinyl-4-amino)propyl)-4-trifluoromethylbenzamide]",0,0.40,35,0.96,79,,63,1
"C=CC(=O)N(C)c1cc(Nc2ncc(Cl)c(NCCCNC(=O)c3ccccc3)n2)ccc1F [Example 87, N-(3-(5-chloro-2-(4-fluoro-3-(N-methylacrylamido)phenylamino)pyrimidinyl-4-amino)propyl)benzamide]",0,0.51,43,0.99,82,,3,22
"C=CC(=O)N(C)c1cc(Nc2ncc(Cl)c(NCCCNC(=O)c3c(F)cc(F)cc3F)n2)ccc1F [Example 36, N-(3-(5-chloro-2-(4-fluoro-3-(N-methylacrylamido)phenylamino)pyrimidinyl-4-amino)propyl)-2,4,6-trifluorobenzamide]",0,0.25,42,0.53,104,,32,38
"C=CC(=O)N(C)c1cc(Nc2ncc(Cl)c(NCCCNC(=O)c3cc(F)c(F)c(F)c3F)n2)ccc1F [Example 107, N-(3-(5-chloro-2-(4-fluoro-3-(N-methylacrylamido)phenylamino)pyrimidinyl-4-amino)propyl)-2,3,4,5-tetrafluorobenzamide]",0,0.79,67,1.01,84,,2,59

# The next lines start with results.
inhibition at 0.03 µM (JAK2) [%],JAK1 RV (ratio between the inhibitory rate of the test compound and that of Xeljanz) (JAK1),inhibition at 0.3 µM (JAK1) [%],JAK3 RV (ratio between the inhibitory rate of the test compound and that of Xeljanz) (JAK3),inhibition at 0.03 µM (JAK3) [%],JAK2 RV (ratio between the inhibitory rate of the test compound and that of Xeljanz) (JAK2),Compound,activity at 0.3 µM (CTLL-2 cells) [%],activity (HeLa cells) [%]
0,0.49,42,0.98,81,,"C=CC(=O)N(C)c1cc(Nc2ncc(Cl)c(NCCCNC(=O)c3ccc(C(F)F)cc3)n2)ccc1F [Example 115, N-(3-(5-chloro-2-(4-fluoro-3-(N-methylacrylamido)phenylamino)pyrimidinyl-4-amino)propyl)-4-difluoromethylbenzamide]",3,71
0,0.01,1,0.79,107,,"C=CC(=O)N(C)c1cc(Nc2ncc(C)c(NCCCNC(=O)c3ccc(C#N)cc3)n2)ccc1F [Example 58, 4-cyano-N-(3-(2-(4-fluoro-3-(N-methylacrylamido)phenylamino)-5-methylpyrimidinyl-4-amino)propyl)benzamide]",54,88
1,0.70,7,0.70,95,0.01,"C=CC(=O)N(C)c1cc(Nc2ncc(Cl)c(OCCCNC(=O)c3ccc(C#N)cc3)n2)ccc1F [Example 71, N-(3-(5-chloro-2-(4-fluoro-3-(N-methylacrylamido)phenylamino)pyrimidinyl-4-oxo)propyl)-4-cyano-benzamide]",70,112
0,0.53,45,1.01,84,,"C=CC(=O)N(C)c1cc(Nc2ncc(Cl)c(NCCCNC(=O)c3cccc(C#N)c3)n2)ccc1F [Example 95, N-(3-(5-chloro-2-(4-fluoro-3-(N-methylacrylamido)phenylamino)pyrimidinyl-4-amino)propyl)-3-cyanobenzamide]",3,3
